# Assay results taken from paper PMC7255010, “Small-molecule activating SIRT6 elicits therapeutic effects and synergistically promotes anti-tumor activity of vitamin D3 in colorectal cancer” (Theranostics, 2020).
# Legend:
# SW1116 = test: Cell proliferation, CCK-8; type: cell-based; details: Homo sapiens, SW 1116; SW1116, CCK8, 48 h
# Description: (§1) Cell proliferation was evaluated using a Cell Counting Kit-8 (CCK-8) (Dojindo) following the manufacturer's instructions. Briefly, CRC cells were plated in 96-well plates at a density of 5 × 10^3 cells per well. […] Cells treated with DMSO were used as the […] controls, and the final DMSO concentration in the medium was 0.1%. After 48 h of treatment, 10 μL of CCK-8 solution was added to every well and incubated for 1 h at 37 °C. Then, a microplate reader (Synergy H4 Hybrid Reader, BioTek) was used to measure the absorbance of the solvent at 450 nm. The background of drug and culture medium has been deducted in each well. The relative cell proliferation of each treatment group was expressed as the percentage change relative to the […] control group. Each data point is the mean ± s.d. of two or three independent experiments.
# LS180 = test: Cell proliferation, CCK-8; type: cell-based; details: Homo sapiens; LS180, CCK8, 48 h
# Description: as §1
# LS513 = test: Cell proliferation, CCK-8; type: cell-based; details: Homo sapiens, LS-513; LS513, CCK8, 48 h
# Description: as §1
# FHC = test: Cell proliferation, CCK-8, non-cancerous colon cell line; type: cell-based; details: Homo sapiens, CCK-8, 48 h, Figure S6, mean ± s.e.m. of three experiments
# FHC cells = test: LDH assay of cytotoxicity in FHC cells; type: cell-based; details: 48 h
# Description: Cell cytotoxicity was assessed by measuring LDH release from damaged or dead cells using a Cytotoxicity LDH Assay Kit-WST (Dojindo) following the manufacturer's instructions. Briefly, 5 × 10^3 cells per well were plated in 96-well plates. […] The final DMSO concentration in the medium was 0.1%. The amount of LDH leakage from the cells was determined by measuring the absorbance at 490 nm using a microplate reader (Synergy H4 Hybrid Reader, BioTek). The percentage of cytotoxicity was calculated as follows: [(test sample - low control)/ (high control - low control)] × 100, where low control is the absorbance of the culture medium without any added extract, and high control is the absorbance of the culture medium in which the cells were treated with 1% (v/v) Triton X-100 to achieve 100% LDH release. Each data point is presented as the mean ± s.d. of three independent experiments.
# SIRT6 [1] = target: T1, SIRT6 (Homo sapiens, UniProt Q8N6T7); test: SIRT6 deacetylation on nucleosome substrates (western blot); type: biochemical; set-up: WT (wild-type) full-length human SIRT6 was inserted into the pET28a-LIC vector; made in house; host or cells: Escherichia coli BL21 (DE3); details: natural nucleosomes, dose-dependent
# Description: In vitro deacetylation reactions on nucleosome substrates were performed as previously reported, [32]. Briefly, 5 μg of mononucleosomes purified from HeLa cells with a nucleosome preparation kit (Active Motif) and 0.2 μg of purified WT SIRT6 were incubated in 40 μL of HDAC buffer (50 mM Tris-HCl [pH 8.0], 2 mM NAD^+, and 150 mM NaCl) for 80 min at 30 °C. […] The reaction mixture was analyzed by western blotting.
# SIRT6 [2] = target: T1, SIRT6; test: FDL assay of SIRT6 deacylase activity (EALPKK-Myr-AMC); type: biochemical; set-up: WT (wild-type) full-length human SIRT6 was inserted into the pET28a-LIC vector; made in house; host or cells: Escherichia coli BL21 (DE3); details: myristoyl peptide EALPKK-Myr-AMC
# Description: According to previously described methods, WT (wild-type) full-length human SIRT6 was inserted into the pET28a-LIC vector (Addgene plasmid #26094). The plasmid was transformed into Escherichia coli BL21 (DE3) cells. Protein was purified using a nickel column and gel filtration. Purified protein was dialyzed into assay buffer (50 mM Tris-HCl [pH 8.0], 137 mM NaCl, 2.7 mM KCl, and 1 mM MgCl2) and used in all in vitro assays performed in this study.
# […], 5 μM WT SIRT6 was incubated in a 50-μL reaction mixture (2.5 mM NAD^+, […], compounds/DMSO, and assay buffer) at 37 °C for 2 h, quenched with 40 mM nicotinamide, and developed with 6 mg/mL trypsin for another 30 min at 25 °C. […] Fluorescence intensity was measured using a microplate reader (Synergy H4 Hybrid Reader, BioTek) at excitation and emission wavelengths of 360 nm and 460 nm, respectively. EC50 values were calculated by fitting the data points with the dose-response function in GraphPad Prism V7 (GraphPad Software). Each experiment was independently repeated three times in technical triplicates.
# SIRT6 [3] = target: T1, SIRT6; test: Histone deacetylase enzyme selectivity assay; type: biochemical; set-up: endogenous in cells; host or cells: HEK293T; details: SIRT6, selectivity panel
# Description: Then, the reaction was initiated by adding the fluorogenic HDAC acetylated substrate (also adding NAD^+ in the deacetylase assays of sirtuins) at the indicated concentrations at room temperature or 37 °C for the indicated durations. After incubation, the reaction was stopped with an equal volume of buffer containing 1 mL of HDAC developer (peptidase activity, BPS Bioscience); 20 µM trichostatin was also included for the termination in the deacetylase assays of HDAC1-11. After the indicated time, fluorescence intensity was measured using a microplate reader (Envision, Perkin Elmer) at excitation and emission wavelengths of 355 nm and 460 nm, respectively. We also developed deacetylase assays for SIRT5 and SIRT7, which were not available at CEREP. For SIRT5 deacetylation assay, HEK293T cells were transiently transfected with empty vector or pcDNA3.1-SIRT5-HA (10 μg/10 cm plate) using Neofect™ DNA transfection reagent. 48 h after transfection, cells were lysed in ice-cold NP-40 buffer (50 mM Tris-HCl [pH 8.0], 150 mM NaCl, 1% NP-40, and protease inhibitor cocktail) with rotation at 4 °C for 30 min. A particle-free supernatant solution was obtained by centrifugation at 13,600 × g for 15 min at 4 °C. […] The data points at various concentrations were expressed as percent inhibition or activation effects of the control activity. […]
# T1 sequence (Q8N6T7 whole entry): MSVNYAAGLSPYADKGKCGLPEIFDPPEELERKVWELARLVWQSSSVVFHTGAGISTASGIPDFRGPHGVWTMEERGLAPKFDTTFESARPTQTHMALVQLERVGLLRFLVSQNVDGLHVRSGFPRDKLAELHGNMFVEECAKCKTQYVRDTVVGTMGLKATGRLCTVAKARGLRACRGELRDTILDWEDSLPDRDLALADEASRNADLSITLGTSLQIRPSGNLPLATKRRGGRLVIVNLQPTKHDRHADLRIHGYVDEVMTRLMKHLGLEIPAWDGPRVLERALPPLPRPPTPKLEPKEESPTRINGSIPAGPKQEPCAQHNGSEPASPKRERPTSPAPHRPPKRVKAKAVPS
compound,measurement,setting,value
Cc1cc(F)c(Br)cc1NS(=O)(=O)c1ccc(NS(=O)(=O)c2cc(Cl)cc(Cl)c2)cc1CN1CCOC[C@H]1C [MDL-811],IC50,SW1116,5.7 ± 0.3 µM
same,IC50,LS180,19.1 ± 0.4 µM
same,IC50,LS513,28.6 ± 0.6 µM
same,IC50,FHC,24.4 ± 0.5 µM
same,cytotoxicity (LDH release),FHC cells,low cytotoxic effect
same,"deacetylation of H3K9Ac, H3K18Ac, and H3K56Ac",SIRT6 [1],"significantly enhanced the deacetylation of SIRT6 (H3K9Ac, H3K18Ac, and H3K56Ac)"
same,effect on SIRT6 deacylation,SIRT6 [2],no apparent effect
same,Effect,SIRT6 [3],Activation
